# Several values for one entry are separate records, joined by “and”; a condition that tells them apart may be missing. Equal entries are not always repeated. Inconclusive results and toxic doses are left out.
# Tested on: L1210 leukemia ip in BDF1 mice, survival T/C
# Assay: NCI In Vivo Anticancer Drug Screen. Data for tumor model L1210 Leukemia (intraperitoneal) in B6D2F1 (BDF1) mice
# Conditions: endpoint: mean survival time, higher = longer survival
# How it was run: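 Read-out is survival time, reported as the treated-group measurement over the vehicle-control measurement.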
# [1] = dose: 100.0 mg/kg/injection, schedule: Q04DX002 (ip), vehicle: saline with Tween-80
# [2] = dose: 200.0 mg/kg/injection, schedule: Q04DX002 (ip), vehicle: saline with Tween-80
# [3] = dose: 400.0 mg/kg/injection, schedule: Q04DX002 (ip), vehicle: saline with Tween-80
# [4] = dose: 100.0 mg/kg/injection, schedule: Q04DX002 (ip), vehicle: Klucel (hydroxypropylcellulose) (HPC)
# [5] = dose: 200.0 mg/kg/injection, schedule: Q04DX002 (ip), vehicle: Klucel (hydroxypropylcellulose) (HPC)
# [6] = dose: 100.0 mg/kg/injection, schedule: Q04DX003 (ip), vehicle: Klucel (hydroxypropylcellulose) (HPC)
# [7] = dose: 200.0 mg/kg/injection, schedule: Q04DX003 (ip), vehicle: Klucel (hydroxypropylcellulose) (HPC)
# [8] = dose: 400.0 mg/kg/injection, schedule: Q04DX003 (ip), vehicle: Klucel (hydroxypropylcellulose) (HPC)
smiles,measurement,setting,value
O=S(=O)(CCl)OCCCCOS(=O)(=O)CCl,T/C,"dose: 31.5 mg/kg/injection, schedule: Q01DX009 (ip), vehicle: saline",108 % of control and 109 % of control
same,T/C,"dose: 31.5 mg/kg/injection, schedule: Q01DX015 (ip), vehicle: saline",112 % of control
same,T/C,"dose: 50.0 mg/kg/injection, schedule: Q01DX001 (ip), vehicle: saline",100 % of control
same,T/C,"dose: 54.0 mg/kg/injection, schedule: Q01DX009 (ip), vehicle: saline",120 % of control and 124 % of control
same,T/C,"dose: 90.0 mg/kg/injection, schedule: Q01DX009 (ip), vehicle: saline",124 % of control
same,T/C,"dose: 90.0 mg/kg/injection, schedule: Q01DX015 (ip), vehicle: saline",124 % of control
same,T/C,"dose: 100.0 mg/kg/injection, schedule: Q01DX001 (ip), vehicle: saline",111 % of control
same,T/C,"dose: 100.0 mg/kg/injection, schedule: Q01DX015 (ip), vehicle: saline",108 % of control
same,T/C,"dose: 133.0 mg/kg/injection, schedule: Q01DX001 (ip), vehicle: saline",104 % of control and 107 % of control and 121 % of control
same,T/C,"dose: 150.0 mg/kg/injection, schedule: Q01DX009 (ip), vehicle: saline",104 % of control
same,T/C,"dose: 200.0 mg/kg/injection, schedule: Q01DX015 (ip), vehicle: saline",97 % of control
same,T/C,"dose: 300.0 mg/kg/injection, schedule: Q01DX001 (ip), vehicle: saline",104 % of control and 121 % of control
CN1CCN(P(=O)(c2ccccc2)N2CCN(C)CC2)CC1,T/C,[1],98 % of control
same,T/C,[2],98 % of control
same,T/C,[3],98 % of control
COc1ccc(Sc2cccc3c2C(=O)c2c(Sc4ccc(OC)cc4)cccc2C3=O)cc1,T/C,"dose: 100.0 mg/kg/injection, schedule: Q04DX003 (ip), vehicle: saline with Tween-80",91 % of control
same,T/C,"dose: 200.0 mg/kg/injection, schedule: Q04DX003 (ip), vehicle: saline with Tween-80",96 % of control
same,T/C,"dose: 400.0 mg/kg/injection, schedule: Q04DX003 (ip), vehicle: saline with Tween-80",87 % of control
O=c1c2ccccc2[nH]c2ncccc12,T/C,[4],96 % of control
same,T/C,[5],92 % of control
C=CCN(Cc1cnc2nc(N)nc(N)c2n1)c1ccc(C(=O)NC(CCC(=O)O)C(=O)O)cc1 (stereo unspecified),T/C,"dose: 1.5 mg/kg/injection, schedule: Q01DX009 (ip), vehicle: sodium bicarbonate",108 % of control
same,T/C,"dose: 3.0 mg/kg/injection, schedule: Q01DX009 (ip), vehicle: sodium bicarbonate",116 % of control
same,T/C,"dose: 6.0 mg/kg/injection, schedule: Q01DX009 (ip), vehicle: sodium bicarbonate",118 % of control
O=C1NC(=O)C(c2ccccc2)C1=O (stereo unspecified),T/C,"dose: 50.0 mg/kg/injection, schedule: Q01DX Z (ip), vehicle: other",105 % of control
same,T/C,"dose: 100.0 mg/kg/injection, schedule: Q01DX Z (ip), vehicle: other",96 % of control
same,T/C,"dose: 200.0 mg/kg/injection, schedule: Q01DX Z (ip), vehicle: other",91 % of control
same,T/C,"dose: 400.0 mg/kg/injection, schedule: Q01DX Z (ip), vehicle: other",89 % of control
ClC1=C(Cl)C2(Cl)C3(Cl)C(Cl)=C(Cl)C(Cl)(C3c3ccccc3)C2(Cl)C1c1ccccc1 (stereo unspecified),T/C,"dose: 50.0 mg/kg/injection, schedule: Q04DX003 (ip), vehicle: Klucel (hydroxypropylcellulose) (HPC)",94 % of control
same,T/C,"dose: 100.0 mg/kg/injection, schedule: Q01DX009 (ip), vehicle: saline sonified",96 % of control
same,T/C,[6],97 % of control
same,T/C,"dose: 200.0 mg/kg/injection, schedule: Q01DX009 (ip), vehicle: saline sonified",96 % of control
same,T/C,[7],89 % of control
same,T/C,"dose: 400.0 mg/kg/injection, schedule: Q01DX009 (ip), vehicle: saline sonified",91 % of control
CC(C)=CCC/C(C)=C/CN1C(=O)C=CC1=O,T/C,"dose: 12.5 mg/kg/injection, schedule: Q01DX009 (ip), vehicle: water",91 % of control
same,T/C,"dose: 25.0 mg/kg/injection, schedule: Q01DX009 (ip), vehicle: water",86 % of control
same,T/C,"dose: 25.0 mg/kg/injection, schedule: Q04DX003 (ip), vehicle: water",97 % of control
same,T/C,"dose: 50.0 mg/kg/injection, schedule: Q04DX003 (ip), vehicle: water",98 % of control
same,T/C,"dose: 100.0 mg/kg/injection, schedule: Q04DX003 (ip), vehicle: water",104 % of control
c1cn2cncc2cn1,T/C,"dose: 25.0 mg/kg/injection, schedule: Q01DX009 (ip), vehicle: saline",90 % of control
same,T/C,"dose: 50.0 mg/kg/injection, schedule: Q01DX009 (ip), vehicle: saline",103 % of control
same,T/C,"dose: 100.0 mg/kg/injection, schedule: Q01DX009 (ip), vehicle: saline",88 % of control
same,T/C,"dose: 100.0 mg/kg/injection, schedule: Q04DX003 (ip), vehicle: saline",103 % of control
same,T/C,"dose: 200.0 mg/kg/injection, schedule: Q04DX003 (ip), vehicle: saline",94 % of control
CCCCCCC/C=C/c1c(C)[nH]c2ccccc2c1=O,T/C,[6],96 % of control
same,T/C,[7],93 % of control
same,T/C,[8],89 % of control
CN(C)Cc1ccccc1COC(=O)c1cccc(Br)c1,T/C,[4],98 % of control
same,T/C,[5],102 % of control
CCCCCc1c(CCC)[nH]c(=O)[nH]c1=O,T/C,"dose: 100.0 mg/kg/injection, schedule: Q01DX001 (ip), vehicle: Klucel (hydroxypropylcellulose) (HPC)",105 % of control
same,T/C,"dose: 200.0 mg/kg/injection, schedule: Q01DX001 (ip), vehicle: Klucel (hydroxypropylcellulose) (HPC)",106 % of control
same,T/C,"dose: 400.0 mg/kg/injection, schedule: Q01DX001 (ip), vehicle: Klucel (hydroxypropylcellulose) (HPC)",90 % of control
NC(=S)N1CCCC1,T/C,[6],93 % of control
same,T/C,[7],96 % of control
same,T/C,[8],93 % of control
COC1(OC)C2(Cl)C(Cl)=C(Cl)C1(Cl)C1C2CS1(=O)=O (stereo unspecified),T/C,"dose: 50.0 mg/kg/injection, schedule: Q01DX001 (ip), vehicle: carboxymethylcellulose (CMC)",100 % of control
same,T/C,"dose: 100.0 mg/kg/injection, schedule: Q01DX001 (ip), vehicle: carboxymethylcellulose (CMC)",92 % of control
same,T/C,"dose: 200.0 mg/kg/injection, schedule: Q01DX001 (ip), vehicle: carboxymethylcellulose (CMC)",100 % of control
same,T/C,"dose: 400.0 mg/kg/injection, schedule: Q01DX001 (ip), vehicle: carboxymethylcellulose (CMC)",89 % of control
CO[C@H]1Nc2c(ccc(C)c2O)C(=O)N2C=C(/C=C/C(N)=O)C[C@@H]12,T/C,"dose: 0.05 mg/kg/injection, schedule: Q01DX015 (ip), vehicle: saline",104 % of control
same,T/C,"dose: 0.08 mg/kg/injection, schedule: Q04DX003 (ip), vehicle: saline with Tween-80",112 % of control
same,T/C,"dose: 0.1 mg/kg/injection, schedule: Q01DX015 (ip), vehicle: saline",112 % of control
same,T/C,"dose: 0.16 mg/kg/injection, schedule: Q04DX003 (ip), vehicle: saline with Tween-80",93 % of control
same,T/C,"dose: 0.2 mg/kg/injection, schedule: Q01DX015 (ip), vehicle: saline",112 % of control
same,T/C,"dose: 0.21 mg/kg/injection, schedule: Q01DX015 (ip), vehicle: saline",114 % of control
same,T/C,"dose: 0.25 mg/kg/injection, schedule: Q01DX001 (ip), vehicle: saline",117 % of control
same,T/C,"dose: 0.36 mg/kg/injection, schedule: Q01DX015 (ip), vehicle: saline",118 % of control
same,T/C,"dose: 0.4 mg/kg/injection, schedule: Q01DX015 (ip), vehicle: saline",110 % of control
same,T/C,"dose: 0.5 mg/kg/injection, schedule: Q01DX001 (ip), vehicle: saline",117 % of control
same,T/C,"dose: 0.6 mg/kg/injection, schedule: Q01DX015 (ip), vehicle: saline",115 % of control and 117 % of control
same,T/C,"dose: 1.0 mg/kg/injection, schedule: Q01DX015 (ip), vehicle: saline",98 % of control
same,T/C,"dose: 1.3 mg/kg/injection, schedule: Q01DX001 (ip), vehicle: saline",156 % of control
same,T/C,"dose: 25.0 micrograms/kg/injection, schedule: Q04DX003 (ip), vehicle: saline",121 % of control
same,T/C,"dose: 50.0 micrograms/kg/injection, schedule: Q04DX003 (ip), vehicle: saline",102 % of control
same,T/C,"dose: 100.0 micrograms/kg/injection, schedule: Q04DX003 (ip), vehicle: saline",114 % of control
same,T/C,"dose: 200.0 micrograms/kg/injection, schedule: Q04DX003 (ip), vehicle: saline",107 % of control
O=C1CCCCC1(CCc1ccncc1)CCc1ccncc1,T/C,"dose: 44.0 mg/kg/injection, schedule: Q01DX Z (ip), vehicle: methylcellulose (MC)",96 % of control
same,T/C,"dose: 66.0 mg/kg/injection, schedule: Q01DX Z (ip), vehicle: methylcellulose (MC)",102 % of control
same,T/C,"dose: 100.0 mg/kg/injection, schedule: Q01DX Z (ip), vehicle: methylcellulose (MC)",109 % of control
CCC(C)C(C=NCC(CCN(CC)CC)(c1cccc2ccccc12)C(C)CC)(CCN(CC)CC)c1cccc2ccccc12 (stereo unspecified),T/C,[1],94 % of control
same,T/C,[2],97 % of control
same,T/C,[3],87 % of control

# From PubChem BioAssay AID248 (DTP/NCI, 2004)
